Usually Ki stands for the dissociation constant of the complex between target and ligand, obtained from inhibition or displacement. A lower Ki goes with a stronger hold on the target.

One assay deals with T1, Thymidylate kinase (Mycobacterium tuberculosis, UniProt P9WKE1).
T1 sequence (P9WKE1 whole entry): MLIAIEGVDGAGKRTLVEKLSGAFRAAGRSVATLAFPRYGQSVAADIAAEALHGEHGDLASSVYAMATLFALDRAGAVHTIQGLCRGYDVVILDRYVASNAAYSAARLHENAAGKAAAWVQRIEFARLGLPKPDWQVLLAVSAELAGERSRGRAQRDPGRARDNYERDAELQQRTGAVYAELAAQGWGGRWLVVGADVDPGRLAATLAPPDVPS
Briefly: Binding affinity towards mycobacterium tuberculosis thymidine monophosphate kinase.
In turn, `O=C(O)CCCc1ccc(Cn2cc(Br)c(=O)[nH]c2=O)cc1` registered a Ki of 12.3 µM.

A further assay concerns the target T1, Thymidylate kinase. Nature of the assay: Binding affinity towards mycobacterium tuberculosis thymidine monophosphate kinase; NI=No inhibition.
For the compound `Cc1cn(Cc2ccc(CCC#N)cc2)c(=O)[nH]c1=O`, the Ki entry is “Not Active”. Same read-out and setting: the entry for `Cc1cn(Cc2ccc(/C=C/C#N)cc2)c(=O)[nH]c1=O` is “Not Active”; for `O=c1[nH]c(=O)n(Cc2ccccc2)cc1F` it is “Not Active”; for `CCOC(=O)/C=C/c1ccc(Cn2cc(C)c(=O)[nH]c2=O)cc1` it is “Not Active”. The same measure, in the same setting: in the case of `Cc1cn(Cc2ccc(/C=C/C(=O)O)cc2)c(=O)[nH]c1=O` it was “Not Active”.
